One assay has as its target Cdk5/p35 (Homo sapiens, UniProt Q00535). Briefly: Cdk5 kinase assay (ADP-Glo) with Cdk5/p35 complex. It is filed as biochemical. The conditions noted are these: 10 μM ATP, histone substrate, inhibitor 0-100 nM. On the procedure: (§1) The test tube Cdk5 Kinase assay was performed utilizing Cdk5/p35 and Cdk5/p25 complexes as kinases, following the modified procedure outlined in a previous study,[52] using a Promega ADP-GloTM Kinase Assay kit. The reaction was carried out with 10 μM ATP and 2 μg of histone as the substrate for Cdk5 complexes. To study the inhibition patterns, 19 Cdk5 inhibitors (BLINK1-19) identified through molecular docking were added to the Cdk5 kinase reaction in increasing concentrations ranging from 0 to 100 nM. The IC50 (half-maximal inhibitory concentration) values of all the inhibitors were calculated based on Log(inhibitor) vs. normalized response using GraphPad software.

For the next assay, the target named is Cdk5/p25 (Homo sapiens, UniProt Q00535). The experiment in a line: Cdk5 kinase assay (ADP-Glo) with Cdk5/p25 complex. It counts as biochemical. The conditions noted are these: 10 μM ATP, histone substrate, inhibitor 0-100 nM. How it is done:
as §1
A general note: In ADP-Glo the light output rises with the ADP produced.

Drawing on publication PMC11986975, “A Cdk5 inhibitor restores cognitive function and alleviates type 2 diabetes in mice” (iScience, 2025), this text covers IC50 for 15 molecules.

One may read the IC50 as the concentration that gives 50% inhibition. Read a low IC50 as higher potency.

Cdk5/p25, sequence (Q00535 whole entry, species assumed): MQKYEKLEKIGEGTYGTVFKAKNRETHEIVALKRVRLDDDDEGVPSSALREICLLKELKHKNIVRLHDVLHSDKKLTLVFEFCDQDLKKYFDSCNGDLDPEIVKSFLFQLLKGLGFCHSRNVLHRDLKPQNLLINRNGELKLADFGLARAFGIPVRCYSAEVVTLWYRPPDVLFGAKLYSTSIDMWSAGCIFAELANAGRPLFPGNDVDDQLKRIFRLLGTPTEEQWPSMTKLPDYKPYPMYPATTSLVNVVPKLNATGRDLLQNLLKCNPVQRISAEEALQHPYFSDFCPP
Cdk5/p25, sequence (Q15078 99-307 partner limits assumed, species assumed): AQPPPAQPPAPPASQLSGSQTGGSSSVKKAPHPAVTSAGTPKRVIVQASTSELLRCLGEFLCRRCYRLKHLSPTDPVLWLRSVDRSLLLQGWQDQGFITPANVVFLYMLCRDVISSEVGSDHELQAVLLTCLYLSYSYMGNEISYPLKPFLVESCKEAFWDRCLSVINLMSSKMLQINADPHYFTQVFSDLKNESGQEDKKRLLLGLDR
Cdk5/p35, sequence (Q00535 whole entry, species assumed): as the sequence (Q00535 whole entry, species assumed) above
Cdk5/p35, sequence (Q15078 whole entry partner, species assumed): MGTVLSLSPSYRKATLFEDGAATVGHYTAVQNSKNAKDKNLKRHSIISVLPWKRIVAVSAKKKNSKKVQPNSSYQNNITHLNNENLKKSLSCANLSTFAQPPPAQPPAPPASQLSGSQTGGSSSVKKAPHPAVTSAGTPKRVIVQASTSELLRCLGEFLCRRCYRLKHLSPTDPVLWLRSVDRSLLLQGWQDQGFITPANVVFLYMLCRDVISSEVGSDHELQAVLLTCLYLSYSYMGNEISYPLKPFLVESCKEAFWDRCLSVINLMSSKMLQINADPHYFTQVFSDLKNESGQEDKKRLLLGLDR

In the case of `CC1(C)Cc2c(sc3nc(SCC(=O)O)[nH]c(=O)c23)CO1` [BLINK1], the IC50 was found to be 19.2 nM against Cdk5/p35 and 18.4 nM on Cdk5/p25.

For the molecule `COc1ccc(C(=O)CSc2nc3sc(C)c(C)c3c(=O)[nH]2)cc1C` [BLINK2], the IC50 at Cdk5/p35 came out at 92.6 nM; against Cdk5/p25, 33.5 nM.

For `Cc1ccc(-c2csc(Cc3nc(-c4cc5ccccc5oc4=O)cs3)n2)cc1` [BLINK3], the IC50 on Cdk5/p35 amounted to 68.7 nM; against Cdk5/p25 it was 71.3 nM.

In the case of `O=C(Nc1ccc(Cl)cc1C(=O)NCCO)c1ccc(Cl)cc1Cl` [BLINK4], the IC50 at Cdk5/p35 worked out at 27.7 nM; against Cdk5/p25, 16.9 nM.

Take `CN(C)C(=O)CSc1nc2sc3c(c2c(=O)[nH]1)CCCC3` [BLINK5]: the IC50 against Cdk5/p35 came out at 16.9 nM; against Cdk5/p25, 17.5 nM.

Regarding `OCCCNc1nc(-c2ccccc2Cl)c2cc(Br)ccc2n1` [BLINK6], the values for the IC50 against Cdk5/p35 and against Cdk5/p25 were 183 nM and 141 nM, respectively.

Take `Cc1nnc(SCC(=O)Nc2nsc(-c3ccc(Cl)cc3)n2)s1` [BLINK7]: the IC50 at Cdk5/p35 stood at 85.2 nM; against Cdk5/p25, 97 nM.

On to `Cc1ccc2nc(Nc3nc(O)cc(CSc4nnc(C)s4)n3)nc(C)c2c1` [BLINK8], for which the values for the IC50 on Cdk5/p35 and at Cdk5/p25 were 50.6 nM and 108 nM, respectively.

With `CCOC(=O)c1cnc(Nc2nc3ccccc3o2)nc1CSc1nnc(C)s1` [BLINK9], the IC50 is 54.1 nM against Cdk5/p35 and 35.1 nM on Cdk5/p25.

As for `O=C(CSc1nnc(-c2ccccc2Cl)[nH]1)c1ccc(O)c(O)c1` [BLINK13], the IC50 at Cdk5/p35 is 20.1 nM; at Cdk5/p25, 41.5 nM.

With `Cc1cc(C)c2nc(-c3cccnc3)cc(C(=O)Nc3sc(Cc4ccccc4)cc3C(N)=O)c2c1` [BLINK14], the IC50 stood at 24.8 nM against Cdk5/p35 and 23.1 nM at Cdk5/p25.

`Clc1ccc2nc(SCc3csc(Nc4ccccc4)n3)oc2c1` [BLINK16]: the IC50 on Cdk5/p35 is 28 nM; against Cdk5/p25 it was 21.2 nM.

As to `O=C(CSc1n[nH]c(-c2ccc(Cl)cc2)n1)N[C@H]1C[C@@H]2CC[C@H]1C2` [BLINK17], the values for the IC50 on Cdk5/p35 and against Cdk5/p25 were 63.2 nM and 43.2 nM, respectively.

Consider `O=C1c2cccc3cccc(c23)C(=O)N1CCCSc1n[nH]c(-c2ccc(F)cc2)n1` [BLINK18], for which the IC50 on Cdk5/p35 worked out at 57.2 nM; against Cdk5/p25, 32.1 nM.

Take `CC1CCc2c(sc3nc(CCl)ncc23)C1` (stereo not drawn) [BLINK19]: the results for the IC50 on Cdk5/p35 and against Cdk5/p25 were 55.3 nM and 48.1 nM, respectively.
